Results: US8779158B2, “Trisubstituted pyrazoles as acetylcholine receptor modulators” (Janssen Pharmaceutica NV, priority 2008, dated 2014)

Experiments:
[1] = target: T1, hα7-wt nAChR (Homo sapiens, UniProt P36544); assay: Ca2+ flux imaging (FDSS) (Protocol B), potentiation of the choline response; format: cell-based; settings: Ca2+ assay as described in D.1; for EC50: "<5" = activity did not reach a top plateau at maximal concentration; for Emax: read-out: % Efficacy
T1 construct: expressed in transfected cells
T1 sequence (P36544 23-502): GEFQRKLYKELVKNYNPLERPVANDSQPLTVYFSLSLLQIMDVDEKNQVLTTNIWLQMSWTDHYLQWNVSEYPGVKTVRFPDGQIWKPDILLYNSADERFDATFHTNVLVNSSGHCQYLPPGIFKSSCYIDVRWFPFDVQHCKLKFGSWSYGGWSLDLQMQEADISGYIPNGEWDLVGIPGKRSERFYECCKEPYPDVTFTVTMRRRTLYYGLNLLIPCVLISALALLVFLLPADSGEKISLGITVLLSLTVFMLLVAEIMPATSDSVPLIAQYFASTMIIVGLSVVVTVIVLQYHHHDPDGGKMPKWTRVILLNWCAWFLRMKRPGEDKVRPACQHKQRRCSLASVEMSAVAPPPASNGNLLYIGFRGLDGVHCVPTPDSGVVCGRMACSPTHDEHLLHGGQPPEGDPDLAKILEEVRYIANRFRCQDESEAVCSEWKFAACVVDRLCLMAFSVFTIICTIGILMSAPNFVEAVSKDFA
Description: Ca^2+ Flux Imaging (FDSS) (Protocol B)
• Hanks buffered saline solution (HBSS, Invitrogen, Belgium), supplemented with 10 mM HEPES (Invitrogen, Belgium), CaCl2 to a final concentration of 5 mM, 0.1% Bovine serum albumin (Sigma-Aldrich NV, Belgium). b) Calcium-Sensitive Dye—Fluo-4AM • Fluo-4AM (Molecular Probes, USA) was dissolved in DMSO containing 10% Pluronic acid (Molecular Probes, USA) to give a stock solution which was diluted in assay buffer supplemented with 5 mM probenicid (Sigma, Aldrich NV, Belgium) to give a final concentration of 2 μM. c) 384-Well Plates • Black 384 well plate black/clear plates, PDL pre-coated (Corning, Incorporated, USA) d) Calcium Flux Measurement • A Functional drug screening system (FDSS, Hamamatsu) was used to measure intracellular free-calcium flux signals. Method
Monolayers of hα7-wt nAChR-expressing cells were grown in multi-well plates, in particular black-sided, transparent bottomed 384 well plates coated with poly-D-lysine for 24 hours prior to loading with a fluorescent calcium indicator, in a particular embodiment loading with fluo-4AM for up to 120 minutes.
PAM activity was detected in real time by applying the compounds to be tested to the loaded cells along with a α7 nicotinic receptor agonist during constant monitoring of cellular fluorescence in a FDSS. Compounds giving peak fluorescent responses greater than the response due to agonist alone, were considered to be α7 nAChR PAM's. In a particular embodiment, the α7 nicotinic receptor agonist was choline, a more particular embodiment choline applied at a sub-maximal concentration of 100 μM. In a further setting of the present invention the compounds to be tested were applied prior to the α7 nicotinic receptor agonist, in a particular embodiment up to 10 minutes prior to the agonist.
A control response to choline was calculated on each plate from the difference in peak in fluorescence in wells receiving either choline or assay buffer alone. Compounds of the present invention were tested at a concentration range from 0.01 μM to 30 μM. Compounds were considered to have an interesting activity when they potentiated the choline signal at least with 200% when tested at a concentration of 30 μM (the efficacy of 100 μM choline was defined as 100% in the absence of a PAM). An EC50 (or pEC50) was determined as a concentration relating to half the maximal effect, when a clear sigmoidal curve with top plateau was obtained.

[2] = target: T2, hα7-wt nAChR-expressing GH4C1 cells (Homo sapiens, UniProt P36544); assay: Patch-clamp current recording (whole-cell voltage clamp), potentiation of the choline current and PAM type; format: cell-based; design: key: Type 0 compounds minimally enhance the effect size of the current elicited by 1 mM choline.; Type 1 compounds enhance the effect size of the current elicited by 1 mM choline but minimally alter the kinetics of the receptor.; Type 2 compounds enhance the effect size of the current elicited by 1 mM choline while reducing the rate and/or the extent of desensitization.; Type 3 compounds enhance the effect size of the current elicited by 1 mM choline. When tested at higher concentrations up to 10 μM they completely inhibit desensitization, in particular a 1 mM choline application of 250 milliseconds.; Type 4 compounds allow for an initial desensitization of the receptor followed by a re-opening of the receptor during agonist application; settings: 1 mM choline
T2 construct: expressed in transfected cells
T2 sequence (P36544 23-502): as above
Description: The compounds of the present invention are classified as type 1-4, based on qualitative kinetic properties, as determined by whole-cell voltage-clamp recordings. This classification is based on the effect of an α7 PAM compound, as described hereinbefore, on the signal elicited by an agonist application. In particular, said agonist is choline at a concentration of 1 mM. In a preferred experimental setting, said α7 PAM compound and choline are simultaneously applied to the cell, as described hereinafter. Desensitization is defined as the closure of the receptor upon activation during the application of the agonist in whole-cell voltage-clamp electrophysiology measurements seen as the reduction of the […] current after initial activation by the agonist.
The definition of the PAM types 1-4 is described hereinafter: • Type 0 compounds minimally enhance the effect size of the current elicited by 1 mM choline. • Type 1 compounds enhance the effect size of the current elicited by 1 mM choline but minimally alter the kinetics of the receptor. In particular, the rate and the extent of desensitization, elicited by the agonist, is not affected. The compound-modulated response to 1 mM choline, therefore, is a close to linear scaling of the 1 mM choline response in absence of the α7 PAM compound. • Type 2 compounds enhance the effect size of the current elicited by 1 mM choline while reducing the rate and/or the extent of desensitization. • Type 3 compounds enhance the effect size of the current elicited by 1 mM choline. […] At low-potency concentrations of the α7 PAM compound, the agonist-induced activation, which is followed by desensitization, can still be separated from the compound-induced re-opening as an initial inward current-maximum. At higher potency concentrations of the α7 PAM compound, the re-opening occurs faster than the closure due to desensitization so that the initial current-maximum disappears.
A compound was considered to have interesting PAM-like activity when the potentiation of the peak current was at least 200% compared to the control choline response (=100%). Such compounds are classified as belonging to a particular PAM type in the Experimental Part. Compounds not meeting the condition are not classified as belonging to a particular PAM-type.
The compounds also have a potentiating effect on the response to choline when measured by whole-cell patch clamp electrophysiology in GH4C1 cells stably over-expressing the human wild-type α7 receptor.
Patch-Clamp Current Recording
Patch-clamp recording from mammalian cells has provided a powerful means of assessing the function of membrane-bound proteins thought to be subunits of ligand-gated ion channels. Activation of such proteins by endogenous or exogenous ligands cause opening of a pore associated with the receptor through which ions flow down their electrochemical gradient. In the case of the hα7-wt nAChR-expressing GH4C1 recombinant cell line the preferential permeability to calcium of this receptor means that calcium flows into the cell upon activation by ACh, choline and other nicotinic ligands giving rise to a calcium current. Since this receptor rapidly desensitizes in the presence of agonist it is important an application system is used which is capable of very rapid switching of solutions (<100 ms) to prevent partial or full desensitisation of receptor responses coincident with the time of agonist application. Consequently, a second convenient technique to assess the enhancement of nicotinic efficacy is patch-clamp recording from hα7-wt nAChR-expressing GH4C1 cells coupled with a rapid-application system.
• The external recording solution consisted of 152 mM NaCl, 5 mM KCl, 1 mM MgCl2, 1 mM Calcium, 10 mM HEPES; pH 7.3. […]

EC50 [1]	Emax [1]	SMILES	PAM type [2]
977 nM		Cc1cc(-c2cc(Nc3cccc(Cl)c3F)nn2CCC(=O)N(C)C)ccn1 [compound 124]	1
575 nM		COc1cc(Nc2cc(-c3ccnc(C)c3)n(CCC(=O)N(C)C)n2)cc(C(F)(F)F)c1 [compound 143]	4
794 nM		COc1cc(Cl)cc(Nc2cc(-c3ccnc(C)c3)n(CC(=O)NCC3CC3)n2)c1 [compound 132]	2
363 nM	503%	Cc1cc(-c2cc(Nc3ccc4c(c3)OC(F)(F)O4)nn2CCC(=O)N(C)C)cc(C)n1 [compound 157]	2
4270 nM		CN(C)C(=O)CCn1nc(Nc2ccc(F)c(F)c2)cc1-c1cccnc1 [compound 19]	2
794 nM		CC[C@H](O)Cn1nc(Nc2cc(OC)cc(C(F)(F)F)c2)cc1-c1ccnc(C)c1 [compound 183]	0
891 nM		CC[C@H](O)Cn1nc(Nc2ccc(F)c(C(F)(F)F)c2)cc1-c1ccnc(C)c1 [compound 46]	0
933 nM	972%	CCNC(=O)Cn1nc(Nc2ccc(F)c(F)c2F)cc1-c1ccnc(C)c1 [compound 125]	2
347 nM		CNC(=O)Cn1nc(Nc2cccc(C(F)(F)F)c2)cc1-c1ccc2c(c1)OCCO2 [compound 76]	4
1350 nM		COCc1cc(-c2cc(Nc3ccc(F)c(F)c3)nn2CCC(=O)N(C)C)ccn1 [compound 70]	3
617 nM		CC[C@H](O)Cn1nc(Nc2ccc(F)c(F)c2)cc1-c1cc(C)nc(C)c1 [compound 59]	1
186 nM	783%	Cc1cc(-c2cc(Nc3cccc(Cl)c3F)nn2CC(=O)NCC2CC2)ccn1 [compound 170]	2
759 nM		CCNc1cc(-c2cc(Nc3ccc(F)c(F)c3F)nn2C[C@@H](O)CC)ccn1 [compound 135]	1
1150 nM		CCNC(=O)Cn1nc(Nc2ccc(F)c(C(F)(F)F)c2)cc1-c1ccc(C)nc1 [compound 27]	2
1780 nM		COc1cc(Cl)cc(Nc2cc(-c3ccnc(C)c3)n(CC(=O)NC3CC3)n2)c1 [compound 110]	2
1950 nM		CNC(=O)Cn1nc(Nc2cccc(Cl)c2F)cc1-c1ccnc(COC)c1 [compound 106]	2
1700 nM		CCNC(=O)Cn1nc(Nc2cccc(Cl)c2)cc1-c1ccnc(C)c1 [compound 111]	2
234 nM		Cc1cc(-c2cc(Nc3ccc4c(c3)OC(F)(F)O4)nn2CC(=O)NCC2CC2)ccn1 [compound 95]	2

EC50 [1]	Emax [1]	SMILES	PAM type [2]
240 nM		Cc1cc(-c2cc(Nc3ccc4c(c3)OC(F)(F)O4)nn2CCC(=O)N(C)C)ccn1 [compound 94]	2
1860 nM		CCNC(=O)Cn1nc(Nc2cc(Cl)cc(OC)c2)cc1-c1ccnc(C)c1 [compound 108]	2
209 nM		Cc1cc(-c2cc(Nc3ccc(F)c(F)c3)nn2CC(=O)NCC2CC2)cc(C)n1 [compound 57]	2
2690 nM		COc1cc(Nc2cc(-c3ccnc(C)c3)n(CC(=O)NC3CC3)n2)cc(C(F)(F)F)c1 [compound 104]	3
724 nM		CCNc1cc(-c2cc(Nc3ccc(F)c(C(F)(F)F)c3)nn2C[C@@H](O)CC)cc(C)n1 [compound 68]	0
550 nM	576%	CCNC(=O)Cn1nc(Nc2cccc(C(F)(F)F)c2)cc1-c1cc(C)nc(C)c1 [compound 155]	2
955 nM	1000%	CCNc1cc(-c2cc(Nc3cc(F)cc(F)c3)nn2C[C@@H](O)CC)ccn1 [compound 8, (alphaS)-3-[(3,5-difluorophenyl)amino]-alpha-ethyl-5-[2-(ethylamino)-4-pyridinyl]-1H-pyrazole-1-ethanol]	1
295 nM	856%	Cc1cc(-c2cc(Nc3ccc(F)c(F)c3F)nn2CCC(=O)N(C)C)ccn1 [compound 166]	2
871 nM		CCNC(=O)Cn1nc(Nc2ccc3c(c2)OC(F)(F)O3)cc1-c1ccncc1 [compound 87]	3
363 nM	509%	Cc1cc(-c2cc(Nc3ccc4c(c3)OC(F)(F)O4)nn2CC(=O)NC2CCC2)cc(C)n1 [compound 158]	1
2630 nM		CCNC(=O)Cn1nc(Nc2ccc3c(c2)OC(F)(F)O3)cc1-c1ccncc1C [compound 91]	2
1860 nM		CNC(=O)Cn1nc(Nc2ccc3c(c2)OC(F)(F)O3)cc1-c1ccnc(C)c1 [compound 92]	2
2290 nM		CNC(=O)Cn1nc(Nc2ccc3c(c2)OC(F)(F)O3)cc1-c1ccncc1 [compound 86]	3
1700 nM		CNC(=O)Cn1nc(Nc2ccc(F)c(F)c2)cc1-c1cc(C)nc(C)c1 [compound 55]	2
1100 nM		Cc1cc(-c2cc(Nc3ccc(F)c(F)c3)nn2CCC(=O)N(C)C)cc(C)n1 [compound 119]	2
1170 nM	633%	CC[C@H](O)Cn1nc(Nc2cccc(Cl)c2F)cc1-c1ccnc(C)c1 [compound 118]	0
447 nM		Cc1cc(-c2cc(Nc3cccc(Cl)c3)nn2CCC(=O)N(C)C)ccn1 [compound 146]	2
3310 nM		CCNC(=O)Cn1nc(Nc2cc(OC)cc(C(F)(F)F)c2)cc1-c1ccnc(C)c1C [compound 51]	2
